Measured values as given in patent US20170304388A1, “NEW INDICATION OF CARDIOVASCULAR DRUGS FOR PREPARATION OF CANCER INHIBITION PHARMACEUTICAL COMPOSITION” (LAUNX BIOMEDICAL CO., LTD., priority 2014, published 2017).
Read-outs that look alike come from different tables or passages of the source.

Assays:
Assay type in all cases: cell-based
[1] = system: LoVo (Colorectal Adenocarcinoma); experiment: Cell viability analysis (WST-1), LoVo; conditions: Homo sapiens, LoVo, 72 h
[2] = system: TSGH-8301 (Urinary Bladder Carcinoma); experiment: Cell viability analysis (WST-1), TSGH-8301; conditions: 72 h, Table 4, repeated experiments, drug 10 μM, WST-1, read-out: survival rate (viability) of cancer cells, TSGH-8301
[3] = system: NIH-OVCAR-3; experiment: Cell viability analysis (WST-1), NIH-OVCAR-3; conditions: Homo sapiens, OVCAR-3, 72 h, Table 4, repeated experiments, drug 10 μM, read-out: survival rate (viability) of cancer cells, NIH-OVCAR-3
How it was run: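 Absorbance at OD450 nm after WST-1 incubation gave the survival rate. Cells (3000/well) were exposed to drug at 10 μM for 72 hours, then given WST-1 diluted 9:1 in medium for 30 to 90 minutes at 37° C.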

[4] = system: MDA-MB231; experiment: Cell viability analysis (WST-1), MDA-MB231; conditions: Homo sapiens, MDA-MB-231, 72 h, Table 4, repeated experiments, drug 10 μM, read-out: survival rate (viability) of cancer cells, MDA-MB231
[5] = system: HeLa (Cervix Adenocarcinoma); experiment: Cell viability analysis (WST-1), HeLa; conditions: Homo sapiens, HeLa, 72 h
[6] = system: A549 (Lung Adenocarcinoma); experiment: Cell viability analysis (WST-1), A549; conditions: Homo sapiens, A549, 72 h

CCC(C)(C)C(=O)O[C@H]1C[C@@H](C)C=C2C=C[C@H](C)[C@H](CC[C@@H]3C[C@@H](O)CC(=O)O3)[C@H]21 [Simvastatin (Zocor), Simvastatin]
viability at 10 µM ([1]; Table 3, drug 10 μM, WST-1, OD450 nm, read-out: survival rate (viability) of cancer cells, LoVo): 99.9% | viability at 10 µM ([1]; Table 4, repeated experiments, drug 10 μM, WST-1, read-out: survival rate (viability) of cancer cells, LoVo): 89.3% | viability at 10 µM [2]: 106% | viability at 10 µM [3]: 98.4% | viability at 10 µM [4]: 71.1% | viability at 10 µM ([5]; Table 3, drug 10 μM, WST-1, OD450 nm, read-out: survival rate (viability) of cancer cells, HeLa): 104% | viability at 10 µM ([5]; Table 4, repeated experiments, drug 10 μM, WST-1, read-out: survival rate (viability) of cancer cells, HeLa): 100% | viability at 10 µM ([6]; Table 3, drug 10 μM, WST-1, OD450 nm, read-out: survival rate (viability) of cancer cells, A549): 126% | viability at 10 µM ([6]; Table 4, repeated experiments, drug 10 μM, WST-1, read-out: survival rate (viability) of cancer cells, A549): 110%
